These results are taken from US11273153B2, “MAPK inhibitors” (EverBrilliant Pharma Pty Ltd, priority 2014, dated 2022).

The target in one data set is p38α MAPK (Homo sapiens (Human), UniProt Q16539). The experiment in a line: Radioactive (33P-labelled ATP) filter binding assay of p38α MAPK activity. The class given is biochemical. The protocol: A number of compounds were also assessed for the inhibition of p38α MAPK activity (www.kinase-screen.mrc.ac.uk) in which a radioactive (^33P-labelled ATP) filter binding assay was used to directly measure phosphate incorporation. Table 1 summarises the binding affinities of the synthesised compounds to both forms of the enzyme as well as the inhibitory activities against p38α MAPK. By way of enabling a comparison with a non-thiophene compound the biological testing was also carried out for known inhibitor RWJ67657, shown in table 1.
Sequence of p38α MAPK (Q16539 whole entry): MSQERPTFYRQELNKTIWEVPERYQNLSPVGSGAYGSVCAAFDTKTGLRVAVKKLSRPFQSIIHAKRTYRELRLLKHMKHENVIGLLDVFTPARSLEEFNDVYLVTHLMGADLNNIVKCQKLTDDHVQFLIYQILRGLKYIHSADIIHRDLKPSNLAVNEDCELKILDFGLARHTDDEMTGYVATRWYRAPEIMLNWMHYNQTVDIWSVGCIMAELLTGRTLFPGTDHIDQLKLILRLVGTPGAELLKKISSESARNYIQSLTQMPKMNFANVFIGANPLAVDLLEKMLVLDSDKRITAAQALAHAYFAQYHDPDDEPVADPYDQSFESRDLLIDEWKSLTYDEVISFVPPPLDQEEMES

Data set [1] is described as follows: In vitro metabolic stability, human liver microsomes. In kind it is in vitro ADME. How it is done: (§1) The metabolic stability of compounds 4.1 and 4.5 was assayed in an in vitro assay which employed liver microsomes. Liver microsomes are valuable models for the determination of hepatic clearance because they contain a number of drug metabolising enzymes, such as the CYP450 enzymes. An in vitro metabolic stability study was conducted using human, rat and mouse liver microsomes as a prediction of the in vivo metabolic clearance. […] From the results, the rates of apparent compound degradation in human, rat and mouse liver microsomes were in agreement with the moderate to high microsome-predicted extraction ratios (EH) for both compounds 4.1 and 4.5.

For data set [2], the system named is neonatal rat cardiac fibroblasts (NCF). The experiment in a line: Neonatal rat cardiac fibroblast collagen synthesis (3H-proline incorporation). The class given is cell-based. As to conditions: AngII 100 nM stimulus. How it is done: The effect of the compounds on neonatal rat cardiac fibroblasts (NCF) collagen synthesis was determined by measuring ^3H-proline incorporation following a published protocol using AngII (100 nM) as the stimulus. ^3H-proline incorporation was determined in the same way as the cardiac myocyte hypertrophy assay described above.

Data set [3] in a line: In vitro metabolic stability, mouse liver microsomes. The class given is in vitro ADME. The protocol: as §1
For orientation: Microsomes from liver hold many membrane-bound enzymes, among them those of drug oxidation.

The test system of data set [4] is IL-6 gene expression in monocytic (THP-1) cells. The experiment in a line: LPS-induced IL-6 gene expression in THP-1 cells. Particulars: LPS-stimulated THP-1 cells. In kind it is cell-based. How it is done: Certain of the compounds were tested in a cellular assay for suppression of TNF-α and IL-6 gene expression in monocytic (THP-1) cells and the assay results are depicted in FIGS. 2 and 3. A published method was used whereby treating THP-1 cells with LPS induces TNF-α and IL-6 gene expression.

Data set [5] relates to neonatal rat cardiac fibroblasts (NCF). The data set can be described thus: NCF cell viability (MTT assay). Particulars: 10 μM concentration. The class given is cell-based. How it is done:
Measurement of NCF cell viability was carried out using a published method with the 3-(4,5-dimethylthiazol-2-yl)-2,5-diphenyltetraxolium bromide (MTT) assay.

Data set [6] concerns the target inactive non-phosphorylated p38α MAPK (Homo sapiens (Human), UniProt Q16539). The data set can be described thus: Fluorescence polarisation (FP) binding assay, inactive enzyme.
Data set [7] deals with active phosphorylated p38α MAPK (Homo sapiens (Human), UniProt Q16539). The data set can be described thus: Fluorescence polarisation (FP) binding assay, active enzyme. In general terms: Fluorescence polarisation rises when a labelled molecule tumbles more slowly, as on binding a larger partner.
Sequence of active phosphorylated p38α MAPK (Q16539 whole entry): as above
A short description of data set [8]: In vitro metabolic stability, rat liver microsomes. The class given is in vitro ADME. The protocol:
as §1

The subject of data set [9] is neonatal rat cardiac myocytes (NCM). The experiment in a line: Neonatal rat cardiac myocyte hypertrophy (3H-leucine incorporation). The class given is cell-based. The protocol: Neonatal rat cardiac myocyte (NCM) hypertrophy was determined by ^3H-leucine incorporation following a published protocol on the above synthesised compounds using either Angiotensin II (AngII, 100 nM) or TNF-α (10 ng/mL) as the stimulus. ^3H levels were counted in scintillation fluid on a beta counter to determine levels of ^3H-leucine incorporation.

[10] abbreviates: NADPH-dependent, read-out: Apparent Degradation half-life.
The mark [11] stands for this setting: read-out: In vitro CLint (μL/min/mg protein).

Where two headings read alike, the source gives them in different places.

Sequence of inactive non-phosphorylated p38α MAPK (Q16539 whole entry): as above

`OCCC#Cc1sc(-c2ccc(F)cc2)c(-c2ccncc2)c1CCCc1ccccc1` [Compound 4.1, 4-(5-(4-Fluorophenyl)-3-(3-phenylpropyl)-4-(pyridin-4-yl)thiophen-2-yl)but-3-yn-1-ol]: the IC50 at p38α MAPK (Table 1, average of two experiments, read-out: IC50 (μM, mean)) was determined as 0.18 µM; on p38α MAPK (Table 6, read-out: IC50 (mean)) it was 0.18 µM. Further, the entries for the “Microsome predicted EH” value in data set [1], in [3] and in data set [8] were 0.92, approximately 0.94 and approximately 0.91, respectively. Further, the figures for the half-life in [1] (setting [10]), in data set [3] (setting [10]) and in [8] (setting [10]) were 8 min, approximately 5 min and approximately 5 min, respectively. Besides, the figures for the microsomal CLint in [1] (setting [11]), in [3] (setting [11]) and in [8] (setting [11]) were 219 µL/min/mg, approximately 342 µL/min/mg and approximately 319 µL/min/mg, respectively. The “inhibition of AngII-stimulated NCF collagen synthesis” value in data set [2] is on record as “did not suppress AngII-induced NCF collagen synthesis at 1 μM concentration”. The “inhibition of LPS-induced IL-6 gene expression” value in data set [4] was “strong inhibition”. Moreover, the NCF cell viability entry in [5] was “no affect on NCF cell viability”. The Ki came out at 2.3 ± 0.2 µM in data set [6] (Table 1, read-out: Ki (μM, mean ± SEM) inactive p38α); 2.3 ± 0.2 µM in data set [6] (Table 6, read-out: Ki ± SEM (μM) to inactive p38α); 0.6 ± 0.1 µM in data set [7] (Table 1, read-out: Ki (μM, mean ± SEM) active p38α); 0.6 ± 0.1 µM in [7] (Table 6, read-out: Ki ± SEM (μM) to active p38α). In data set [9] (AngII 100 nM stimulus), the “suppression of AngII-induced NCM hypertrophy” value is “suppression of NCM hypertrophy”. For the same compound, in data set [9] (TNF-α 10 ng/mL stimulus), the “suppression of TNF-α-induced NCM hypertrophy” value is given as “suppression of NCM hypertrophy”.

As a reminder, the IC50 is the concentration needed to halve the response being measured. As a reminder, the half-life is the time in which the quantity being followed falls by half. One may read the Ki as the dissociation constant of the complex between target and ligand, obtained from inhibition or displacement.
